What all share (type): in vivo, mouse
The subject of one assay is MCP-1. The experiment in a line: Expression of MCP-1 in white adipocytes of mice i.c.v. administered with NPY Y5 agonist (TaqMan PCR). The conditions noted are these: 5 μg/day i.c.v., non-treated C57BL/6N set to 1. The method, then: Model mice displaying obesity were constructed by the administration of NPY Y5 agonist in the manner described below.
Male mice (9-12 weeks old) (C57BL/6J, CLEA, Inc.) were bred at one animal per plastic cage under the conditions of: room temperature 23±2° C.; and humidity 55±15%. The light-dark cycle during breeding period was set to be 12 hours and the light was put on at 7 a.m. and turned off at 7 p.m. Mice were allowed access to ad lib feed (CE-2 (protein: 25.4 wt. %; carbohydrate: 50.3 wt. %; lipid: 4.4 wt. %), CLEA, Inc.) and water.
Mice were anesthetized with 80 mg/kg of sodium pentobarbital (Dinabott Inc.) and were locally implanted with sterilized 28-gage brain fusion cannulas (Alzet) at their right cerebral ventricles. The cannula was fixed vertically relative to the cranical bone at the position 0.4 mm behind and 0.8 mm side of the bregma and 2 mm deep. The cannula was fixed to the ventricle with dental cement. The cannula was connected to an osmotic pump (model no. 2002 manufactured by Alzet) filled with 10 mM phosphate buffer containing 0.05% bovine serum albumin via a polyvinylchloride tube. […]
The quantitative analysis of the expression amount of MCP-1 was performed by TaqMan PCR, using cDNA obtained from the white adipocytes according to RT-PCR. […]
On the technique in general: Quantitative PCR measures a nucleic acid by following its amplification.

Another assay concerns leptin. The experiment in a line: Expression of leptin in white adipocytes of mice i.c.v. administered with NPY Y5 agonist. Particulars: 5 μg/day i.c.v., non-treated C57BL/6N set to 1.
Assay [1] relates to CD11b positive blood cells (monocytes/macrophages). Briefly: Expression analysis of CD11b by flow cytometry in mice administered with MCP-1. The conditions noted are these: subcutaneous infusion by osmotic pump, 10 ng/0.5 μl/hr over 2 weeks; versus saline-administered control mice; FIG. 10(d)-(f). The method, then:
The analysis using flow cytometry was performed to study how the count of CD11b, which was a surface antigen of macrophages, or blood monocytes would vary upon administration of MCP-1.
Mice were first subcutaneously infused with. MCP-1, using an osmotic pump, at the rate of 10 ng/0.5 μl/hr over 2 weeks. Next, blood was collected from the tail veins of the control mice (C57BL/6), the DIO mice and the MCP-1 treated mice, respectively, using a heparinized capillary. After blood cells were collected from the blood by centrifugation at 300×g for 5 minutes, they were incubated with the FITC-labeled anti-mouse CD11b antibody (BD Biosciences) at room temperature for 15 minutes. The samples were incubated with the IgG2b isotype to serve as a non-specific binding control. After washing these cells with PBS, erythrocytes were lyzed with a lysis buffer at room temperature for 5 minutes. After washing the cells with PBS, the cells were suspended in PBS containing 0.5% formaldehyde. Flow cytometry was performed on this suspension, using an EPCIS Elite Flow Cytometer (Beckman Coulter, Inc.), to identify monocytes. Here, the analysis by flow cytometry was carried out by determining the population of monocytes/macrophages in the whole blood cells. In the flow cytometry 40,000 cells per each sample were analyzed with the fluorescence and scattered light as indices. […]

Turning to D-Try^34 NPY [Y5 agonist], the “Expression amount of MCP-1” value is on record as 7.67 in the assay on MCP-1 (Y5 agonist FF (ad lib fed)) and 5.16 with MCP-1 (Y5 agonist PF (pair feeding)). For the same substance, the results for the “Expression amount of leptin” value in the assay with leptin (Y5 agonist FF (ad lib fed)) and with leptin (Y5 agonist PF (pair feeding)) were 3.53 and 1.77, respectively.
Regarding “MCP-1: monocyte chemotaxis factor protein of the CC chemokine subfamily, subcutaneously infused into mice”, the “CD11b positive blood cell count” value in assay [1] is given as “increases”.
